# Results reported in patent US20060063785A1, “Substituted pyrazolo[1,5-a] pyrimidines and process for making same” (priority 2004, published 2006).
# How the values were obtained:
# LoVo Colon cell line = assay: Cytotoxicity assay using LoVo colon cell line (SRB, IC50); assay type: cell-based; conditions: Cellular activity in LoVo cell; 4 days incubation, SRB assay; read-out: Inhibition of LoVo
# Method: Cytotoxicity Assay Using LoVo Colon Cell Line: • 1. LoVo Colon cell lines was cultured in RPMI 1640 medium (Gibco/Invitrogen Life Sciences) supplemented with 10% fetal bovine serum (FBS, Gibco) and 50 μg/ml gentamicin (Gibco). Cells were maintained at 37° C. under 7% CO2. • 2. Cells were seeded in 96-well microtiter plates (Corning/Costar) in a volume of 0.15 ml of growth medium (4000 cells/well). Plates were incubated at 37° C. overnight (18-24 hours). • 3. Serial dilutions of the test agent were added to each well. Dilutions were prepared in growth medium. One of two dose ranges was used: 5 pM to 20 μM or […] to 10 μg/ml. Cells were incubated with the test compounds for 4 days at 37° C. • 4. Surviving cells were processed using the SRB asay, as described above.
# 5. The drug concentration that inhibits cell proliferation by 50% relative to untreated controls (IC50) was determined from cytotoxicity curves using the LSW Toolbox graphing application.
# [1] = tested on: 80S14 (p21-deficient) cells; assay: Determination of selectivity of compounds for p21-/- cells: IC50 in 80S14 cells (SRB); assay type: cell-based, human; conditions: Cellular activity in 80S14 (p21-deficient) cells, SRB; class symbols; read-out: IC50 for 80S14
# Method: • 1. 80S14 (p21-deficient) cells were cultured in RPMI 1640 medium (Gibco/Invitrogen Life technologies) supplemented with 10% fetal bovine serum (FBS, Gibco) and 10 μg/ml gentamycin (Gibco). Cells were maintained at 37° C. under 7% CO2. • 2. Cells were plated at 6×10^4/ml (0.2 ml/well; 12,000 cells/well) in 96-well microtiter plates (Falcon or Corning/Costar) and incubated at 37° C. overnight (18-24 hours). • 3. 2-5 μl of the test agent-[200 μg/ml stock in 20% DMSO/20 mM HEPES, pH 7.5 (Gibco)] was added to each well to achieve a final concentration of 2-5 μg/ml. Cells were incubated with the test compounds for 5 days at 37° C. • 4. Surviving cells were fixed with 50 μl 50% trichloroacetic acid (Sigma; 10% final concentration) for 1 hour at 4° C. • 5. Plates were rinsed twice with water (0.3 ml per wash using MRD8 robot), and allowed to dry. • 6. Sulforhodamine B (SRB) (Sigma; 0.4% in 1% acetic acid, 50 μl per well; MRD8 robot) was added and plates kept at room temperature for 10 minutes. • 7. Excess dye was removed by washing with 1% acetic acid (3 times, 0.3 ml per wash; MRD8 robot) and allowed to dry. • 8. The dye was solubilized in Tris base (Sigma; 10 mM, 150 μl per well). Plates were kept at room temperature for 30 minutes to allow the dye to diffuse. • 9. Absorbance was measured at 540 nm. • 10. The percentage of cells surviving drug treatment relative to control wells (no drug) was determined. • 11. The difference in % cell survival between the two cell lines was calculated. • 12. Compounds producing a difference score of >50 were considered to be selective for the p21-deficient cells and were evaluated further. Determination of Selectivity of Compounds for p21−/− Cells: • 1. 80S14 cells were cultured as described above. • 2. Cells were seeded in 96-well microtiter plates at 12,000 cells/well (either 0.15 ml/well of 8×10^4 cells/ml suspension, or 0.2 ml/well of 6×10^4 cells/ml suspension). Plates were incubated at 37° C. overnight (18-24 hours). • 3. Serial dilutions of the test agent were added to each well. Dilutions were prepared either in 40% DMSO/20% methanol/20 mM HEPES, pH 7.5 (Gibco) or directly in growth medium. One of two dose ranges were used: 5 pM to 50 μM or 170 pg/ml to 10 μg/ml. Cells were incubated with the test compounds for 5 days at 37° C. • 4. Surviving cells were fixed with 50 μl 50% trichloroacetic acid (Sigma; 10% final concentration) for 1 hour at 4° C. • 5. Plates were rinsed extensively in water, and allowed to dry. • 6. Sulforhodamine B (Sigma; 0.4% in 1% acetic acid, 70 μl per well) was added and plates kept at room temperature for 10 minutes. • 7. Excess dye was removed by washing 5 times with 1% acetic acid and plates were allowed to dry. • 8. The dye was solubilized in Tris base (Sigma; 10 mM, 150 μl per well). Plates were placed on a titer plate shaker (Lab Line Instruments) for 5 minutes to allow the dye to diffuse. • 9. Absorbance was measured at 560 nm.
# 10. The drug concentration which inhibits cell proliferation by 50% relative to untreated controls (IC50) was determined from cytotoxicity curves.
Molecule,melting point,IC50 (LoVo Colon cell line),IC50 [1]
"CCCCNC(=O)Nc1cccc(-c2ccnc3c(C(=O)c4cccs4)cnn23)c1 [Example 6, N-butyl-N′-{3-[3-(thien-2-ylcarbonyl)pyrazolo [1,5-a]pyrimidin-7-yl]phenyl}urea]",158 to 160 °C,,
"O=C(c1ccco1)c1cnn2c(-c3cccc(-n4cccc4)c3)ccnc12 [Example 186, 2-Furanyl[7-[3-(1H-pyrrol-1-yl)phenyl]pyrazolo[1,5-a]pyrimidin-3-yl]-methanone]",204 to 206 °C,,
"O=C(Nc1cccc(-c2ccnc3c(C(=O)c4cccs4)cnn23)c1)c1ccncc1 [Example 201, N-{3-[3-(2-Thienylcarbonyl)pyrazolo[1,5-a]pyrimidin-7-yl]phenyl}isonicotinamide]",212 to 215 °C,,
"O=C(Nc1cccc(-c2ccnc3c(C(=O)c4cccs4)cnn23)c1)c1ccccc1F [Example 254, 2-Fluoro-N-{3-[3-(thien-2-ylcarbonyl)pyrazolo[1,5-a]pyrimidin-7-yl]phenyl}benzamide]",190 to 191 °C,,
"O=C(c1cccs1)c1cnn2c(-c3cccc(NCc4ccco4)c3)ccnc12 [Example 263, (7-{3-[(2-Furylmethyl)amino]phenyl}pyrazolo[1,5-a]pyrimidin-3-yl)(thien-2-yl)methanone]",124 to 128 °C,,
"(7-{3-[1-(Pyridin-2-ylmethyl)-1H-pyrazol-3-yl]phenyl}pyrazolo[1,5-a]pyrimidin-3-yl)(thien-2-yl)methanone [Example 406]",,< 100 nM,< 1000 nM
"(7-{3-[2-(2-Hydroxyethyl)-2H-tetraazol-5-yl]phenyl}pyrazolo[1,5-a]pyrimidin-3-yl)(thien-2-yl)methanone [Example 402]",,100 to 1000 nM,< 1000 nM
"(7-{3-[2-(Pyridin-2-ylmethyl)-2H-tetraazol-5-yl]phenyl}pyrazolo[1,5-a]pyriridin-3-yl)(thien-2-yl)methanone [Example 397]",,100 to 1000 nM,< 1000 nM
tert-Butyl 4-[2-oxo-2-({3-[3-(thien-2-ylcarbonyl)pyrazolo[1.5-a]pyrimidin-7-yl]phenyl}amino)ethyl]piperidine-1-carboxylate [Example 286],,< 100 nM,< 1000 nM
"{7-[3-(1-Ethyl-1H-pyrazol-3-yl)phenyl]pyrazolo[1,5-a]pyrimidin-3-yl}(thien-2-yl)methanone [Example 407]",,100 to 1000 nM,1000 to 10000 nM
"{7-[3-(1H-Pyrazol-3-yl)phenyl]pyrazolo[1,5-a]pyrimidin-3-yl}(thien-2-yl)methanone [Example 403]",,< 100 nM,< 1000 nM

# Continued, in another order:
melting point,Molecule,IC50 (LoVo Colon cell line),IC50 [1]
148 to 150 °C,"O=C(c1cccs1)c1cnn2c(Cl)ccnc12 [Example 284, (7-Chloropyrazolo[1,5-a]pyrimidin-3-yl)(thien-2-yl)methanone]",,
128 to 131 °C,"COc1ccccc1/C=C/CNc1cccc(-c2ccnc3c(C(=O)c4cccs4)cnn23)c1 [Example 288, [7-(3-{[(2E)-3-(2-Methoxyphenyl)prop-2-enyl]amino}phenyl)pyrazolo[1,5-a]pyrimidin-3-yl](thien-2-yl)methanone]",,
> 200 °C,"CC(C)NC(=N)Nc1cccc(-c2ccnc3c(C(=O)c4cccs4)cnn23)c1 [Example 301, N-Isopropyl-N′-{3-[3-(thien-2-ylcarbonyl)pyrazolo[1,5-a]pyrimidin-7-yl]phenyl}guanidine]",,
240 to 241 °C,"CC(C)NC(=NC#N)Nc1cccc(-c2ccnc3c(C(=O)c4cccs4)cnn23)c1 [Example 304, N″-Cyano-N-isopropyl-N′-{3-[3-(thien-2-ylcarbonyl)pyrazolo[1,5-a]pyrimidin-7-yl]phenyl}guanidine]",,
148 to 159 °C,"O=C(Nc1cccc(-c2ccnc3c(C(=O)c4cccs4)cnn23)c1)OCCCN1CCS(=O)(=O)CC1 [Example 309, 3-(1,1-Dioxidothiomorpholin-4-yl)propyl 3-[3-(thien-2-ylcarbonyl)pyrazolo[1,5-a]pyrimidin-7-yl]phenylcarbamate]",,
